Data on three molecules can be found in paper PMC4854315, “Discovery of a novel allosteric inhibitor-binding site in ERK5: comparison with the canonical kinase hinge ATP-binding site” (Acta Crystallographica. Section D, Structural Biology, 2016).

The inhibition is the change of the read-out against control, counted positive when it falls.

Holding throughout (assay): Z'-LYTE kinase panel
What all share (assay type): biochemical

The target in one test is T1, EPHA1 (Homo sapiens, UniProt P21709).
T1 construct: purchased ThermoFisher (SelectScreen, Z'-LYTE)
T1 sequence (P21709 26-976): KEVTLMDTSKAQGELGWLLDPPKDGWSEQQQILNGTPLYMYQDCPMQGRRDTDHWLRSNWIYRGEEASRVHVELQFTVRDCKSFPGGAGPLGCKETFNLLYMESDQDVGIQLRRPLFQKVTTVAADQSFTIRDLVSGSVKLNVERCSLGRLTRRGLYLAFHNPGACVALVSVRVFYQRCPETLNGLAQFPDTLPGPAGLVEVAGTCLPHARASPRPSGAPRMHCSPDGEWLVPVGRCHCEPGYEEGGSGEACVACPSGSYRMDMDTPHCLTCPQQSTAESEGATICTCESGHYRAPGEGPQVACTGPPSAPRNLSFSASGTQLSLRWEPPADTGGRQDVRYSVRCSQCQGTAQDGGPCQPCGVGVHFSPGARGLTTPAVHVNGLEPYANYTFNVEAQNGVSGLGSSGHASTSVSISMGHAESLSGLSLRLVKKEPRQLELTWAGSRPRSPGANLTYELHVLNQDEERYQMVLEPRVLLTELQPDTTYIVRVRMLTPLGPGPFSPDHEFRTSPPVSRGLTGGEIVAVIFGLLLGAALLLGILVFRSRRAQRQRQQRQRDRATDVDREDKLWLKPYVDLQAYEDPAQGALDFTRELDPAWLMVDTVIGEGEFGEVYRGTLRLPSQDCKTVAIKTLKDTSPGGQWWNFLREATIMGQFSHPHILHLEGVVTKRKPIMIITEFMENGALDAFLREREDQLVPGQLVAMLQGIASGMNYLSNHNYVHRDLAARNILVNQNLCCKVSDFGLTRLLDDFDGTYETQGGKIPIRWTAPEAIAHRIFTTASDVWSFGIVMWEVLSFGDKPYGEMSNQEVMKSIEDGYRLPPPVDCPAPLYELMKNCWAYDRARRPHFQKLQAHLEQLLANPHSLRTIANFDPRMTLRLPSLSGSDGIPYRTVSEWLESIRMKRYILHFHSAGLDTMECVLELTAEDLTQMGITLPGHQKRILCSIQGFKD
Summed up: (§1)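 The 225-kinase standard panel was run using the Z′-LYTE protocol, and inhibition was expressed as a percentage relative to uninhibited activity at 10 µM compound.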

The next test concerns the target T2, HCK (Homo sapiens, UniProt P08631).
T2 construct: purchased ThermoFisher (SelectScreen, Z'-LYTE)
Put shortly: as §1

For the next test, the target named is T3, ROS1 (Homo sapiens, UniProt P08922).
T3 construct: purchased ThermoFisher (SelectScreen, Z'-LYTE)
Summed up: as §1

For a further test, the target named is T4, GSK3A (GSK3 alpha) (Homo sapiens, UniProt P49840).
T4 construct: purchased ThermoFisher (SelectScreen, Z'-LYTE)
The conditions noted are these: 10 µM compound, ATP Km app. Summed up: as §1

For a further test, the target named is T5, BLK (Homo sapiens, UniProt P51451).
T5 construct: purchased ThermoFisher (SelectScreen, Z'-LYTE)
Put shortly: as §1

The next test concerns the target T6, HIPK1 (Myak) (Homo sapiens, UniProt Q86Z02).
T6 construct: purchased ThermoFisher (SelectScreen, Z'-LYTE)
Put shortly: as §1

The next test has as its target T7, CAMK1D (CaMKI delta) (Homo sapiens, UniProt Q8IU85).
T7 construct: purchased ThermoFisher (SelectScreen, Z'-LYTE)
Summed up: as §1

A further test concerns the target T8, RPS6KA6 (RSK4) (Homo sapiens, UniProt Q9UK32).
T8 construct: purchased ThermoFisher (SelectScreen, Z'-LYTE)
Put shortly: as §1

Another test has as its target T9, MYLK2 (skMLCK) (Homo sapiens, UniProt Q9H1R3).
T9 construct: purchased ThermoFisher (SelectScreen, Z'-LYTE)
Summed up: as §1

In another test the target is T10, AMPK A1/B1/G1 (Homo sapiens, UniProt Q13131).
T10 construct: purchased ThermoFisher (SelectScreen, Z'-LYTE)
Summed up: as §1

Another test concerns the target T11, YES1 (Homo sapiens, UniProt P07947).
T11 construct: purchased ThermoFisher (SelectScreen, Z'-LYTE)
Put shortly: as §1

The next test concerns the target T12, MAP3K9 (MLK1) (Homo sapiens, UniProt P80192).
T12 construct: purchased ThermoFisher (SelectScreen, Z'-LYTE)
Summed up:
as §1

The next test concerns the target T13, SRPK1 (Homo sapiens, UniProt Q96SB4).
T13 construct: purchased ThermoFisher (SelectScreen, Z'-LYTE)
Summed up:
as §1

Another test has as its target T14, IKBKE (IKK epsilon) (Homo sapiens, UniProt Q14164).
T14 construct: purchased ThermoFisher (SelectScreen, Z'-LYTE)
T14 sequence (Q14164 1-716): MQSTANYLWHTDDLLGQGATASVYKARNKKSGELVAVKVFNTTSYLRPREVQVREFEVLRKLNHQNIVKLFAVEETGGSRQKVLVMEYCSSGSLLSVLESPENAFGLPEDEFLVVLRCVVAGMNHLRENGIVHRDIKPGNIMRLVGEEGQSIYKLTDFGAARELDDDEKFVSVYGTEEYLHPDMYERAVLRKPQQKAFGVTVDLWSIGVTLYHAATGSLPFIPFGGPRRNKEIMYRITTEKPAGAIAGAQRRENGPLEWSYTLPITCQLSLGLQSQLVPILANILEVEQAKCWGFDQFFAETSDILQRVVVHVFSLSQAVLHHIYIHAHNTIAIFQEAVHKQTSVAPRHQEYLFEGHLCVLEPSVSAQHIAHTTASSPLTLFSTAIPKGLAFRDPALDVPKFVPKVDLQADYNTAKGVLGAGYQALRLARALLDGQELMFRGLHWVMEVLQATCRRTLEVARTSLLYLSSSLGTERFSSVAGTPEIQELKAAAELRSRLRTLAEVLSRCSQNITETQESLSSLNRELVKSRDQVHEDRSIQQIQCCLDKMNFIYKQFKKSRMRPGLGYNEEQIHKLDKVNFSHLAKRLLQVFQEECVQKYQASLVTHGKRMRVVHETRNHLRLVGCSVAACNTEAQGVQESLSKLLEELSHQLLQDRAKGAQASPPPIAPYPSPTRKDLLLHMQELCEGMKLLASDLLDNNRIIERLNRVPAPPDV
Summed up: as §1

A further test concerns the target T15, PDGFRB (PDGFR beta) (Homo sapiens, UniProt P09619).
T15 construct: purchased ThermoFisher (SelectScreen, Z'-LYTE)
Put shortly: as §1

For the next test, the target named is T16, FGFR3 (Homo sapiens, UniProt P22607).
T16 construct: purchased ThermoFisher (SelectScreen, Z'-LYTE)
Put shortly:
as §1

The next test addresses T17, JAK2 (Homo sapiens, UniProt O60674).
T17 construct: purchased ThermoFisher (SelectScreen, Z'-LYTE)
Put shortly: as §1

The target in the next test is T18, NTRK1 (TRKA) (Homo sapiens, UniProt P04629).
T18 construct: purchased ThermoFisher (SelectScreen, Z'-LYTE)
Summed up:
as §1

The next test deals with T19, CSK (Homo sapiens, UniProt P41240).
T19 construct: purchased ThermoFisher (SelectScreen, Z'-LYTE)
Put shortly: as §1

T11 sequence (P07947 whole entry): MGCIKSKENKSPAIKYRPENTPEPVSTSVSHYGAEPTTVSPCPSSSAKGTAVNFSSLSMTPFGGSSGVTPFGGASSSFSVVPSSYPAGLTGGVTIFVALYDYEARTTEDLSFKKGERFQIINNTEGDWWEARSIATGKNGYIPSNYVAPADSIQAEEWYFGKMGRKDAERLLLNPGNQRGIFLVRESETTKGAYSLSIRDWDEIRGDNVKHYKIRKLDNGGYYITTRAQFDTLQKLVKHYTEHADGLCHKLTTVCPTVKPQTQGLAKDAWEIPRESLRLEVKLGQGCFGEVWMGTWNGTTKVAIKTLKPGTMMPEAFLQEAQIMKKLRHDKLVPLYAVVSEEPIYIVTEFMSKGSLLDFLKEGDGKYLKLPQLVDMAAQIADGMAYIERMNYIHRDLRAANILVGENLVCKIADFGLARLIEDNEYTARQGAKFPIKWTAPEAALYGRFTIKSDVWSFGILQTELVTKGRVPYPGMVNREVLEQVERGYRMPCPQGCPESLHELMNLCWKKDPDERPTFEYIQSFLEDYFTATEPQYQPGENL
T15 sequence (P09619 33-1106): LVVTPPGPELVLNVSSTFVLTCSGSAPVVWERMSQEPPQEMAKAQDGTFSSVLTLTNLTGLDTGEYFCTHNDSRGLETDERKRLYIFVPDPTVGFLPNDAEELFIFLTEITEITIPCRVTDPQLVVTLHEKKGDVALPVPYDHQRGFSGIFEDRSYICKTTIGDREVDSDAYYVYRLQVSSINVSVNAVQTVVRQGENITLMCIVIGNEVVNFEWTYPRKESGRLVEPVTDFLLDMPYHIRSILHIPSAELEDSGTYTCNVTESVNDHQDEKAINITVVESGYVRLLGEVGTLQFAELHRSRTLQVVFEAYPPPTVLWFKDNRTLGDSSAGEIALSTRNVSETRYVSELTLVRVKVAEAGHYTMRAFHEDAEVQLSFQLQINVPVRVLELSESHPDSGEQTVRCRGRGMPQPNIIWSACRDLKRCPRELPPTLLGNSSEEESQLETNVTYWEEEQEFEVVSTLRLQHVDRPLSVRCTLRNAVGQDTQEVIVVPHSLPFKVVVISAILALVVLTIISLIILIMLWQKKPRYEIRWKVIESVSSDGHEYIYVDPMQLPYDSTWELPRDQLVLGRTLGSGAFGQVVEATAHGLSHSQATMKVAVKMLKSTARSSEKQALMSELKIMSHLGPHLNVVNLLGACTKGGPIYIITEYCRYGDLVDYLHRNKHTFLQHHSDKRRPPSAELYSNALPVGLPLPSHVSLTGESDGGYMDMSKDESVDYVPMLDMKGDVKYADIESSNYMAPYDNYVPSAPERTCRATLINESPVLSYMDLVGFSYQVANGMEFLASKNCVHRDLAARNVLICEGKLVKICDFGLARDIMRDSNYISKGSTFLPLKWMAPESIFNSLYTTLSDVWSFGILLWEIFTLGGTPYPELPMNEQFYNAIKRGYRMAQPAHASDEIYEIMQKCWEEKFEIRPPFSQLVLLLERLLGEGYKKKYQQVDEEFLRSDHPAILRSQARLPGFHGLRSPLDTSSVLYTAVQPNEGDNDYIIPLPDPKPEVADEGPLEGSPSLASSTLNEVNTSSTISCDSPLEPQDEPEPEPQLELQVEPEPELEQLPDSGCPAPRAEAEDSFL
T4 sequence (P49840 whole entry): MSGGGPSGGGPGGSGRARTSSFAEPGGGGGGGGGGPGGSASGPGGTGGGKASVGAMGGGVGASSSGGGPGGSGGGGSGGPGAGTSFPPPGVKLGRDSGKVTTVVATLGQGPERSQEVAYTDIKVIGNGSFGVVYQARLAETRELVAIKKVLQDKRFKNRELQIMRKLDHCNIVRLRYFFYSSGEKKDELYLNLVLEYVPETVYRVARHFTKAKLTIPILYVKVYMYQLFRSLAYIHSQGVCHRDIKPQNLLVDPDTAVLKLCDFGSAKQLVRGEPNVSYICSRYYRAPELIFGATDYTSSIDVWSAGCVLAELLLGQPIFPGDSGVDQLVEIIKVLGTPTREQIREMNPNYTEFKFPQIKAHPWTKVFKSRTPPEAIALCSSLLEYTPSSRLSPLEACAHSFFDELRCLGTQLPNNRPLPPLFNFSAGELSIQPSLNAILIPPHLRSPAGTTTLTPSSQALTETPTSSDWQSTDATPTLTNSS
T3 sequence (P08922 28-2347): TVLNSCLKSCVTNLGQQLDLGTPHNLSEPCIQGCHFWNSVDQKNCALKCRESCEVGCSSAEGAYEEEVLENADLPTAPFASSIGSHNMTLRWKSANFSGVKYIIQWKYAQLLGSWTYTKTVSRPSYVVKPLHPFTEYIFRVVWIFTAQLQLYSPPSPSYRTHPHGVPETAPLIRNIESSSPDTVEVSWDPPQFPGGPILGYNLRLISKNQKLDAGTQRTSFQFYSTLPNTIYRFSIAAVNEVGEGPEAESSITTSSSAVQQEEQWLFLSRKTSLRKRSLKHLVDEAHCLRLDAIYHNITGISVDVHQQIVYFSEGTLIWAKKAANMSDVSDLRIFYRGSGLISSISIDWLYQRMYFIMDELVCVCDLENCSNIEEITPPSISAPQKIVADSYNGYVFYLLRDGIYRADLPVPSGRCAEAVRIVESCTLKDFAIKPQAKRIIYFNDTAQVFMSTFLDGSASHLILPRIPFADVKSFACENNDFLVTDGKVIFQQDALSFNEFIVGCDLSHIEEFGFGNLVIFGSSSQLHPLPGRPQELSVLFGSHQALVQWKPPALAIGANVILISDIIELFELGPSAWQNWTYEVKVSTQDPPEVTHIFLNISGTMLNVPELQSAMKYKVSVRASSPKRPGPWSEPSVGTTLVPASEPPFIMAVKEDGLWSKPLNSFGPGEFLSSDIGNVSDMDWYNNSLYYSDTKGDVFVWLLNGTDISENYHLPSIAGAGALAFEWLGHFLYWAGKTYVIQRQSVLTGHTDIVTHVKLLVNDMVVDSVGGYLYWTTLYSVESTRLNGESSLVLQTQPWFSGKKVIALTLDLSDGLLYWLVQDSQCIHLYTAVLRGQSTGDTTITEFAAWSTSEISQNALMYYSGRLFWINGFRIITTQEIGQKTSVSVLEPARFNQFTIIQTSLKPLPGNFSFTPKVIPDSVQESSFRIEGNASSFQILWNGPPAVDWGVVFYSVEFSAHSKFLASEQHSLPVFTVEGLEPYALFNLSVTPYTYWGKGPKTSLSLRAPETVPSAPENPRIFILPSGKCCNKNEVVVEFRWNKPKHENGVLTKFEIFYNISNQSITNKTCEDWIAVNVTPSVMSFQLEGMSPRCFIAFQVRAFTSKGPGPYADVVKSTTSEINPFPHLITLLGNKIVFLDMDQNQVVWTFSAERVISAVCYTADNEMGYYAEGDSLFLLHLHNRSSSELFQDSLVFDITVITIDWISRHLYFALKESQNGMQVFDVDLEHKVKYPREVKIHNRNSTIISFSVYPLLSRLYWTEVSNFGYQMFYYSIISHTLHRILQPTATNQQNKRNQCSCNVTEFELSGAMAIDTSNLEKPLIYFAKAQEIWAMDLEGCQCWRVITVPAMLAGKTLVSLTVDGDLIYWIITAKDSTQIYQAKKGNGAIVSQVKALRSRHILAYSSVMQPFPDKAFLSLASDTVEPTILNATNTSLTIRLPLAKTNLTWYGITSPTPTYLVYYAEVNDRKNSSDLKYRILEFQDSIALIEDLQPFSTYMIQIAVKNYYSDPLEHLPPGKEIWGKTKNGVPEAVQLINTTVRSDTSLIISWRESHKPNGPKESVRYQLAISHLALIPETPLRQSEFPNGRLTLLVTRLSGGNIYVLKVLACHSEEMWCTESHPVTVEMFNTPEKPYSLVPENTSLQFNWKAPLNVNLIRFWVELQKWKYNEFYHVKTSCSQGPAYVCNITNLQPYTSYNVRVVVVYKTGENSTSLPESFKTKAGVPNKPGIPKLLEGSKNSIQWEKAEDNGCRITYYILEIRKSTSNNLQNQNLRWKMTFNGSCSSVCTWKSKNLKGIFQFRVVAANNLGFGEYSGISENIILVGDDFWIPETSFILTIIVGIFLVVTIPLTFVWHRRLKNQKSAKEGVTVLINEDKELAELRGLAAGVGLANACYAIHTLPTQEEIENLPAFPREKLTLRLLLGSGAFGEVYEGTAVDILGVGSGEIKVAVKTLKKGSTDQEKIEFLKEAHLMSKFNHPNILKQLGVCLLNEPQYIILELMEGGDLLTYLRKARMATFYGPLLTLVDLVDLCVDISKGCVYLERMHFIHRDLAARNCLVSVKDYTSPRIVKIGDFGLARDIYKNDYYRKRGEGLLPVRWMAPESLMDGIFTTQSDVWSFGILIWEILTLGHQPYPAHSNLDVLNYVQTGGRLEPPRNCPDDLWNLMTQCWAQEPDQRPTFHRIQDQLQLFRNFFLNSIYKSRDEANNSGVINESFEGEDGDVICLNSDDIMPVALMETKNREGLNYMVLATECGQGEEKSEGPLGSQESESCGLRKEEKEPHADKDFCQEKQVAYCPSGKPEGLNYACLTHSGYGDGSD
T2 sequence (P08631 whole entry): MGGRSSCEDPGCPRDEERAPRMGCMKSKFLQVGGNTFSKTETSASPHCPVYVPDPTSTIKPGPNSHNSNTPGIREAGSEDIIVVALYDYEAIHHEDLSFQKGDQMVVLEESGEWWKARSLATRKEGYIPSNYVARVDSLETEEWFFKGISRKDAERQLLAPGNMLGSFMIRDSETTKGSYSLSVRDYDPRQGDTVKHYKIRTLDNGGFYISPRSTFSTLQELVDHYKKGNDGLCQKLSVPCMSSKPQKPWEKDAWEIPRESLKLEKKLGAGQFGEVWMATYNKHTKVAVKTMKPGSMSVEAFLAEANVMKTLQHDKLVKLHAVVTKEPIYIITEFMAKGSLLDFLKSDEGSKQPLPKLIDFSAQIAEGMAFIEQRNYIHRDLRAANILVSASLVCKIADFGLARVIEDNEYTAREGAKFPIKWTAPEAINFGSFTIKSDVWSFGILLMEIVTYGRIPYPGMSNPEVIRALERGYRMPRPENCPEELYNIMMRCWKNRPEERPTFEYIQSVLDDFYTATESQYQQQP

As to “XMD8-92 [Compound 2, reference compound]”, the “EPHA1 % Inhibition” value on EPHA1 (10 µM compound, ATP Km app) was 9.48%. Further, the “HCK % Inhibition” value at HCK (10 µM compound, ATP Km app) is reported as 14%. Besides, the “ROS1 % Inhibition” value on ROS1 (10 µM compound, ATP Km app) turned out to be 69%. Also, on GSK3A (GSK3 alpha), the “GSK3A (GSK3 alpha) % Inhibition” value was determined as 35%. For the same molecule, the “BLK % Inhibition” value on BLK (10 µM compound, ATP Km app) is on record as 38%. Also, the “HIPK1 (Myak) % Inhibition” value at HIPK1 (Myak) (10 µM compound, ATP Km app) was 6%. Also, at CAMK1D (CaMKI delta) (10 µM compound, ATP Km app), the “CAMK1D (CaMKI delta) % Inhibition” value is reported as 19%. Further, the “RPS6KA6 (RSK4) % Inhibition” value at RPS6KA6 (RSK4) (10 µM compound, ATP Km app) turned out to be 72%. The “MYLK2 (skMLCK) % Inhibition” value at MYLK2 (skMLCK) (10 µM compound, ATP Km app) was determined as 42%. For the same molecule, the “AMPK A1/B1/G1 % Inhibition” value at AMPK A1/B1/G1 (10 µM compound, ATP Km app) is given as 55%. Besides, the “YES1 % Inhibition” value on YES1 (10 µM compound, ATP Km app) is given as 41%. Besides, the “MAP3K9 (MLK1) % Inhibition” value at MAP3K9 (MLK1) (10 µM compound, ATP Km app) was 8.53%. Also, at SRPK1 (10 µM compound, ATP Km app), the “SRPK1 % Inhibition” value is reported as -3%. In addition, at IKBKE (IKK epsilon) (10 µM compound, ATP Km app), the “IKBKE (IKK epsilon) % Inhibition” value is listed as 4.66%. In addition, the “PDGFRB (PDGFR beta) % Inhibition” value on PDGFRB (PDGFR beta) (10 µM compound, ATP Km app) is 7%. For the same molecule, the “FGFR3 % Inhibition” value on FGFR3 (10 µM compound, ATP Km app) is recorded as 9%. Besides, at JAK2 (10 µM compound, ATP Km app), the “JAK2 % Inhibition” value is recorded as 95%. Moreover, on NTRK1 (TRKA) (10 µM compound, ATP Km app), the “NTRK1 (TRKA) % Inhibition” value amounted to 43%. The “CSK % Inhibition” value on CSK (10 µM compound, ATP Km app) is 11%.

As for `Cc1cc(Nc2nc(N)nn2C(=O)NC(C)C)ccc1Cl` [Compound 5], the inhibition at 10 µM at EPHA1 is 11%; against HCK, 16%; at ROS1, 57%; against GSK3A (GSK3 alpha), more than 80%; on BLK, 22%; on HIPK1 (Myak), -2.24%. The inhibition at 10 µM against CAMK1D (CaMKI delta) was 0.357%; on RPS6KA6 (RSK4), 58%; against MYLK2 (skMLCK) it was -0.775%; on AMPK A1/B1/G1 it was 23%; on YES1, 46%; at MAP3K9 (MLK1), 69%. The inhibition at 10 µM worked out at 2% against SRPK1; 9% against IKBKE (IKK epsilon); 10% against PDGFRB (PDGFR beta); 13% against FGFR3; 66% on JAK2; 36% on NTRK1 (TRKA). Further, the inhibition at 10 µM against CSK amounted to 16%. At GSK3A (GSK3 alpha) (listed as SN1109056190, 10 µM), the “GSK3A (GSK3 alpha) % Inhibition” value came to 82%.

As to `Cc1ncc(-c2nc(Nc3ccc(C(=O)NCCN4CCCCC4)cc3)ncc2F)n1C(C)C` [Compound 3], the inhibition at 10 µM stood at 98% on EPHA1; 48% on HCK; 99% on ROS1; 98% against GSK3A (GSK3 alpha); 65% at BLK; 83% at HIPK1 (Myak). The inhibition at 10 µM is 59% on CAMK1D (CaMKI delta); 82% against RPS6KA6 (RSK4); 78% against MYLK2 (skMLCK); 95% on AMPK A1/B1/G1; 85% at YES1; 92% at MAP3K9 (MLK1). Also, the inhibition at 10 µM at SRPK1 was 24%; at IKBKE (IKK epsilon), 33%; on PDGFRB (PDGFR beta) it was 87%; against FGFR3, 54%; on JAK2, 92%; against NTRK1 (TRKA), 76%. Also, the inhibition at 10 µM against CSK was 29%.
